In PubChem BioAssay AID330 (DTP/NCI, 2004):
Where “and” joins values, the source holds several entries; their conditions need not be identical. Equal values may be shown once. Inconclusive results and toxic doses are left out. How the source made its calls: active means survival T/C of 150% or more; inactive means T/C below 125% in these data.

Test system: P388 leukemia ip, CD2F1 mice, survival T/C
Assay: NCI In Vivo Anticancer Drug Screen. Data for tumor model P388 Leukemia (intraperitoneal) in CD2F1 (CDF1) mice
Settings: endpoint: median survival time, higher = longer survival
How it was run: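 Mice carrying the transplanted tumor received test compound or vehicle. Survival was recorded in each group, and the value is the treated-group measurement divided by that of the vehicle-treated control group.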

[1] = dose: 60.0 mg/kg/injection, schedule: Q01DX005 (ip), vehicle: Klucel (hydroxypropylcellulose) (HPC)
[2] = dose: 120.0 mg/kg/injection, schedule: Q01DX005 (ip), vehicle: Klucel (hydroxypropylcellulose) (HPC)
[3] = dose: 50.0 mg/kg/injection, schedule: Q01DX009 (ip), vehicle: saline with Tween-80
[4] = dose: 100.0 mg/kg/injection, schedule: Q01DX009 (ip), vehicle: saline with Tween-80
[5] = dose: 200.0 mg/kg/injection, schedule: Q01DX009 (ip), vehicle: saline with Tween-80

Measured: T/C

Cc1cc(Cl)ccc1NC(=O)N1CCCCC1
inactive: [1] 96 % of control | [2] 96 % of control | dose: 240.0 mg/kg/injection, schedule: Q01DX005 (ip), vehicle: Klucel (hydroxypropylcellulose) (HPC) 93 % of control

ClCc1nnn(Cc2ccccc2)c1CCl
inactive: dose: 50.0 mg/kg/injection, schedule: Q01DX009 (ip), vehicle: saline 102 % of control | dose: 100.0 mg/kg/injection, schedule: Q01DX009 (ip), vehicle: saline 89 % of control | dose: 200.0 mg/kg/injection, schedule: Q01DX009 (ip), vehicle: saline 92 % of control

CCOC(=O)OCC(=O)[C@@]1(O)CC[C@H]2[C@@H]3CCC4=CC(=O)CC[C@]4(C)[C@H]3[C@@H](O)C[C@@]21C
inactive: [3] 104 % of control | dose: 50.0 mg/kg/injection, schedule: Q04DX003 (ip), vehicle: saline with Tween-80 100 % of control | [4] 100 % of control | dose: 100.0 mg/kg/injection, schedule: Q04DX003 (ip), vehicle: saline with Tween-80 100 % of control | [5] 90 % of control | dose: 200.0 mg/kg/injection, schedule: Q04DX003 (ip), vehicle: saline with Tween-80 100 % of control

CC1=NN(C(=O)c2ccncc2)C(=O)C1N=Nc1ccc(C)cc1 (stereo unspecified)
inactive: [3] 105 % of control | [4] 101 % of control | [5] 99 % of control

CCOS(=O)(=O)CC(C)C(C)C (stereo unspecified)
inactive: dose: 50.0 mg/kg/injection, schedule: Q01DX005 (ip), vehicle: saline with Tween-80 98 % of control | dose: 100.0 mg/kg/injection, schedule: Q01DX005 (ip), vehicle: saline with Tween-80 104 % of control | dose: 200.0 mg/kg/injection, schedule: Q01DX005 (ip), vehicle: saline with Tween-80 101 % of control

O=c1oc2c(ccc3nc(-c4ccccc4)sc32)c(N2CCOCC2)c1Cl
inactive: dose: 50.0 mg/kg/injection, schedule: Q01DX005 (ip), vehicle: Klucel (hydroxypropylcellulose) (HPC) 92 % of control | dose: 100.0 mg/kg/injection, schedule: Q01DX005 (ip), vehicle: Klucel (hydroxypropylcellulose) (HPC) 91 % of control | dose: 200.0 mg/kg/injection, schedule: Q01DX005 (ip), vehicle: Klucel (hydroxypropylcellulose) (HPC) 89 % of control

O=C(c1ccccc1)C1(c2ccccc2)CCN(Cc2ccccc2)CC1
inactive: dose: 100.0 mg/kg/injection, schedule: Q04DX002 (ip), vehicle: saline with Tween-80 93 % of control | dose: 200.0 mg/kg/injection, schedule: Q04DX002 (ip), vehicle: saline with Tween-80 86 % of control | dose: 400.0 mg/kg/injection, schedule: Q04DX002 (ip), vehicle: saline with Tween-80 94 % of control

CCC(C)(CC)OC(N)=O
inactive: dose: 25.0 mg/kg/injection, schedule: Q01DX009 (ip), vehicle: saline with Tween-80 100 % of control | [3] 91 % of control | [4] 109 % of control | [5] 105 % of control

C[N+](C)(C)CCC(=O)c1ccc(Cl)c(Cl)c1
inactive: dose: 3.13 mg/kg/injection, schedule: Q01DX009 (ip), vehicle: saline 108 % of control | dose: 6.25 mg/kg/injection, schedule: Q01DX009 (ip), vehicle: saline 112 % of control | dose: 12.5 mg/kg/injection, schedule: Q01DX009 (ip), vehicle: saline 108 % of control

COC1=CC(=O)c2c(O)cc(OC)cc2C1=O
inactive: dose: 1.25 mg/kg/injection, schedule: Q01DX009 (ip), vehicle: saline with Tween-80 106 % of control and 116 % of control | dose: 2.5 mg/kg/injection, schedule: Q01DX009 (ip), vehicle: saline with Tween-80 101 % of control and 108 % of control | dose: 5.0 mg/kg/injection, schedule: Q01DX009 (ip), vehicle: saline with Tween-80 100 % of control and 114 % of control | dose: 10.0 mg/kg/injection, schedule: Q01DX009 (ip), vehicle: saline with Tween-80 100 % of control and 92 % of control | dose: 20.0 mg/kg/injection, schedule: Q01DX009 (ip), vehicle: saline with Tween-80 107 % of control and 92 % of control

C1=NC2=C(CCc3ccccc32)C2=NCCN12
inactive: dose: 10.0 mg/kg/injection, schedule: Q04DX002 (ip), vehicle: saline with Tween-80 100 % of control | dose: 20.0 mg/kg/injection, schedule: Q04DX002 (ip), vehicle: saline with Tween-80 96 % of control | dose: 40.0 mg/kg/injection, schedule: Q04DX002 (ip), vehicle: saline with Tween-80 100 % of control

COc1ccccc1N1CCN(c2nc(NC(=O)c3ccccc3)nn2C)CC1
inactive: [1] 112 % of control | [2] 87 % of control
